These results are taken from US20250213598A1, “COMPOUNDS AS ELASTASE INHIBITOR AND SOLID FORM THEREOF” (priority 2023, published 2025).

The target of data set [1] is T1, Recombinant Human Elastase (rhElastase) (Homo sapiens, UniProt P08246).
T1 sequence (P08246 30-267): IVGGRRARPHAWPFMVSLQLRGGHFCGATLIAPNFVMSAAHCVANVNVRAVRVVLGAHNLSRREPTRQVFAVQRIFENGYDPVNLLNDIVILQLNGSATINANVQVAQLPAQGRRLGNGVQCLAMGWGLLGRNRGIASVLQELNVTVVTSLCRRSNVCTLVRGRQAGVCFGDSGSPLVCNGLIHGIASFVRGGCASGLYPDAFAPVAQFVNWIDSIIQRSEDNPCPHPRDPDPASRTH
Kind of data set: Activity test against recombinant human elastase (rhElastase). Format: biochemical. On the procedure:
Activation of protease: rhElastase was diluted to 2 μM with an activation buffer containing 1.25 μM Recombinant Mouse Active Cathepsin C Protein (mCathepsin C), and incubated at 37° C. for 2 h. After activation, the mature rhElastase was diluted to form a 3.33 nM rhElastase reaction solution. The compound was diluted in serial with DMSO and added to a 384-well plate (3-fold serial dilution, 10 concentration points, duplicate wells). For the 384-well plate containing the compound, columns 1-12 each was added with 15 μL of the reaction buffer and columns 13-24 each was added with 15 μL of the rhElastase reaction solution. The plate was pre-incubated at 25° C. for 30 min and added with 5 μL of the substrate to start the reaction. The final concentration of rhElastase is 2.5 nM, and the final concentration of the substrate is 3.125 μM. The final concentration of DMSO in the reaction system is 1%. After incubating at 37° C. for 60 min, the fluorescence value was read with an M4 microplate reader. The detection conditions are Ex/Em=380 nm/460 nm.

Data set [2] is described as follows: Pharmacokinetic experiment in Sprague-Dawley rats (intravenous / inhalation; plasma and lung). The format is in vivo. As for the experimental part:
The appropriate amount of sodium citrate was weighed and dissolved in water to prepare a sodium citrate solution with a concentration of 1 mg/ml. After the addition of compound (I) (appropriate amount) under stirring, the sodium citrate solution was slowly added with 1 M sodium hydroxide solution to adjust the pH to 5.0±0.2. After stirring, dissolving and filtering, a stock solution of compound (I) with a concentration of 80 mg/ml was obtained, which is administrated by inhalation. The stock solution was diluted in a continuous gradient method to give a solution of compound (I) with a concentration of 0.4 mg/ml for intravenous administration.
21 male Sprague-Dawley rats was selected and divided into 7 groups (3 animals/group). Group 1 was administered intravenously at a dose of 2 mg/kg, and groups 2-7 are administered by inhalation at a designed dose of 15 mg/kg (an actual delivered dose is 16.712 mg/kg). For animals in groups 1-2, blood samples were collected before administration and at 2 min, 5 min, 15 min, 30 min, 1 h, 2 h, 4 h, 6 h, 8 h, and 24 h after administration. For animals in groups 3-7, lung tissues and blood samples were collected at 0.25 h, 1 h, 2 h, 6 h, and 12 h after administration (i.e., 2.25 h, 3 h, 4 h, 8 h, and 14 h After the start of the drug administration). The LC-MS/MS was used to analyze the concentration of compound (I) in the plasma and lung tissues of rats, and the non-compartmental model (NCA) of the pharmacokinetic analysis software WinNonlin (8.0.0.3176) is used to analyze the drug concentrations in plasma and lung tissue and calculate the pharmacokinetic parameters.

The mark [3] stands for this setting: Inhalation, 15 mg/kg, SD rats, matrix Lung.
Setting [4] is: Inhalation, 15 mg/kg, male SD rats, plasma.
[5] abbreviates: Intravenous, 2 mg/kg, male SD rats, plasma.

With `CC(C)C(NC(=O)C1CCCN1C(=O)C(NC(=O)c1ccc(C(=O)NCC(=O)O)cc1)C(C)C)B1OB(C(NC(=O)C2CCCN2C(=O)C(NC(=O)c2ccc(C(=O)NCC(=O)O)cc2)C(C)C)C(C)C)OB(C(NC(=O)C2CCCN2C(=O)C(NC(=O)c2ccc(C(=O)NCC(=O)O)cc2)C(C)C)C(C)C)O1` (stereo not shown) [compound (I)], in data set [1], the IC50 was 1.32 nM. The Cmax was 67568.60 in data set [2] (setting [3]); 320.58 in data set [2] (Inhalation, 15 mg/kg, SD rats, matrix Plasma, in ng/mL); 798.55 ± 333.20 ng/mL in data set [2] (setting [4]); 5331.49 ± 696.49 ng/mL in data set [2] (setting [5]). Moreover, the Tmax in data set [2] (setting [3]) is given as 2.25 h; in data set [2] (Inhalation, 15 mg/kg, SD rats, matrix Plasma), 2.25 h; in data set [2] (setting [4]) it was 2.03 ± 0.0 h; in data set [2] (setting [5]) it was 0.03 ± 0.0 h. The t1/2 in data set [2] (setting [3]) stood at 2.69 h; in data set [2] (setting [4]), 1.91 ± 1.05 h; in data set [2] (setting [5]) it was 0.33 ± 0.10 h. In addition, the AUClast in data set [2] (Inhalation, 15 mg/kg, SD rats, matrix Plasma, in ng·h/mL) came out at 622.35; in data set [2] (setting [4]), 1501.79 ± 486.138 ng·h/mL; in data set [2] (setting [5]) it was 1107.18 ± 144.07 ng·h/mL. Besides, the F % in data set [2] (Inhalation, 15 mg/kg, male SD rats) is reported as 18.09%.

In general, IC50 refers to the concentration that gives 50% inhibition. A word on the Tmax: it is the time from dosing to the highest level.
